In PubChem BioAssay AID1348 (Sanford-Burnham Center for Chemical Genomics, 2008) one finds survival data, which are given here for eleven molecules.

For the experiment, the system named is CSM14.1 staurosporine-induced death rescue, ATPlite, 24 h. Nature of the experiment: protection against staurosporine-triggered CSM14.1 death, SAR follow-up, selectivity assay for ER stress death inhibitor project, cell-based, undifferentiated CSM14.1, ATP luminescence (AID 1348). As to conditions: at 25 µM; stronger effect = higher value.

Activity calls are given as the source filed them.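 Rule for the calls: active = cell survival above 50% at 25 µM despite a drug that triggers cell death; inactive = the rest.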

Take `COc1ccc(C2CC(=O)C3=C(C2)Nc2ccccc2NC3c2cccc(Oc3ccccc3)c2)cc1OC` (stereo unspecified): the survival is 11% (inactive).
The value for `CSc1ccc(C2Nc3ccccc3NC3=C2C(=O)CC(c2ccccc2)C3)cc1` (stereo unspecified) was 8% (inactive).
Consider `O=C1CC(c2ccccc2)CC2=C1C(c1c(F)cccc1Cl)Nc1ccccc1N2` (stereo unspecified), for which the survival is 8% (inactive).
Under `CCOc1cc(C2Nc3ccccc3NC3=C2C(=O)CC(c2ccc(OC)cc2)C3)cc(Cl)c1O` (stereo unspecified) stands 9% (inactive); under `COc1ccc(C2CC(=O)C3=C(C2)Nc2ccccc2NC3c2cccc(C(F)(F)F)c2)cc1OC` (stereo unspecified), 10% (inactive); under `COc1ccc(C2CC(=O)C3=C(C2)Nc2ccccc2NC3c2ccccc2C(F)(F)F)cc1OC` (stereo unspecified), 6% (inactive).
The value for `CCOc1cccc(C2Nc3ccccc3NC3=C2C(=O)CC(c2ccc(OC)cc2)C3)c1` (stereo unspecified) was 8% (inactive); that for `CC1(C)CC(=O)C2=C(C1)Nc1ccccc1NC2c1ccc(-c2ccccc2)cc1` (stereo unspecified) was 13% (inactive).
The value for `COc1ccc(C2CC(=O)C3=C(C2)Nc2ccccc2NC3c2cccc(Br)c2)cc1OC` (stereo unspecified) was 10% (inactive); that for `CCCOc1ccc(C2Nc3ccccc3NC3=C2C(=O)CC(c2ccc(OC)c(OC)c2)C3)cc1` (stereo unspecified) was 12% (inactive); that for `COc1ccc(C2CC(=O)C3=C(C2)Nc2ccccc2NC3c2cc(C)ccc2C)cc1` (stereo unspecified) was 9% (inactive).
